In patent publication US6677329B1, “Non-aromatic estrogenic steroids with a hydrocarbon substituent in position 11” (Akzo Nobel N V., priority 1999, dated 2004):

How the values were obtained:
[1] = target: T1, human estrogen receptor α (hERα) (Homo sapiens, UniProt P03372); assay: transactivation assay in recombinant CHO cells (rat oxytocin promoter, luciferase reporter), α; assay type: cell-based; conditions: potency ratio, in percentage of the action of the reference compound in the assay
T1 construct: expressed in transfected cells; host or cells: CHO cells, line CHO-ERRO 2B1-1E9, with rat oxytocin promoter and luciferase reporter
T1 sequence (P03372 1-595): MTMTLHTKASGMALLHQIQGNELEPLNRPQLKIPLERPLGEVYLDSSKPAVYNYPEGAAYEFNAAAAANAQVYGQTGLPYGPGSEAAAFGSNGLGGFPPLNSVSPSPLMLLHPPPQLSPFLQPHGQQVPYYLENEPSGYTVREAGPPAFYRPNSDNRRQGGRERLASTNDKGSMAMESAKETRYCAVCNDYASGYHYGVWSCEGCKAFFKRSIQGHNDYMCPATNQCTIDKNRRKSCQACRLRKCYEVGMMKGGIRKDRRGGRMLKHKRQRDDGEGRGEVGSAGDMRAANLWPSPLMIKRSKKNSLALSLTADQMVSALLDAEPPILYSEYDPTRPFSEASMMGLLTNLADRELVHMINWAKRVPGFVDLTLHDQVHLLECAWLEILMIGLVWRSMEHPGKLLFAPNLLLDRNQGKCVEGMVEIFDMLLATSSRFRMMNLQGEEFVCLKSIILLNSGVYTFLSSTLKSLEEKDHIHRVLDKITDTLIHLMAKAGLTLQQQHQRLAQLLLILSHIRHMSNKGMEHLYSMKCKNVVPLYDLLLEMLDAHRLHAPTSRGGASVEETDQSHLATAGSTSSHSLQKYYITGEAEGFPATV
Protocol: (§1) Compounds are tested for their estrogen receptor activity in a binding assay and in a transactivation assay.
(§2) The antiestrogenic activity of compounds is determined in an in vitro bioassay with recombinant Chinese hamster ovary (CHO) cells stably co-transfected with the human estrogen receptor α (hERα) or β receptor (hERβ), the rat oxytocin promoter (RO) and the luciferase reporter gene (LUC). The antiestrogenic activity (potency ratio) of a test compound to inhibit the transactivation of the enzyme luciferase mediated via the estrogen receptor by the estrogen Org 2317 (estradiol, 1, 3, 5 (10)-estratriene-3,17β-diol) is compared with the standard Org 34790 (ICI 164.384; (7α,17β)-N-butyl-3,17-dihydroxy-N-methylestra-1,3,5 (10)-triene-7-undecanamide).
(§3) Test medium: Intact recombinant CHO cells stably co-transfected with the human estrogen receptor, the rat oxytocin promoter and the luciferase reporter gene. The cell line has been produced within the Department of Biotechnology and Biochemistry (BBC) (N.V. Organon) and is known under the name CHO-ERRO 2B1-1E9.
(§4) The data are expressed in percentage of the action of the reference compound in the assay

[2] = target: T2, human estrogen β receptor (hERβ) (Homo sapiens, UniProt Q92731); assay: transactivation assay in recombinant CHO cells (rat oxytocin promoter, luciferase reporter), β; assay type: cell-based; conditions: potency ratio, in percentage of the action of the reference compound in the assay
T2 construct: expressed in transfected cells; host or cells: CHO cells with rat oxytocin promoter and luciferase reporter (no ERβ line named)
T2 sequence (Q92731 whole entry): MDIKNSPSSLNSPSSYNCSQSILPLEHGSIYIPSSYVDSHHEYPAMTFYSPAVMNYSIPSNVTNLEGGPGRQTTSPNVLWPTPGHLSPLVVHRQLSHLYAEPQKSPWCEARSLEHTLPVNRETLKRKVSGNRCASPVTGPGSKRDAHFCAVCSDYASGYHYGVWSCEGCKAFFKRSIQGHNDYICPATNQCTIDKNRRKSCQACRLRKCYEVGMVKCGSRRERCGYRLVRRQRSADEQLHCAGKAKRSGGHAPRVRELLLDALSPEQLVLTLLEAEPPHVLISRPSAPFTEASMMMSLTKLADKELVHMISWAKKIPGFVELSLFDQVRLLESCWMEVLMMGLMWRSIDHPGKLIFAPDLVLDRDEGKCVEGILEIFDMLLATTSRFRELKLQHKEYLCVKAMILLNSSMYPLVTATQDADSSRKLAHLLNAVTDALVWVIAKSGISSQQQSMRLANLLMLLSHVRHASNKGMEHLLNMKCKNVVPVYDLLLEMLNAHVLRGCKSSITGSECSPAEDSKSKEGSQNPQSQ
Protocol: as §1, §2, §3, §4

[3] = target: T2, human estrogen β receptor (hERβ); assay: competitive binding to cytoplasmic human estrogen receptor from recombinant CHO cells (β-binding); conditions: relative affinity (potency ratio), in percentage of the action of the reference compound in the assay; cytosol of recombinant CHO cells
Protocol: (§5) Compounds are tested for their estrogen receptor activity in a binding assay and in a transactivation assay. Determination of competitive binding to cytoplasmic human estrogen receptor from rec.CHO cells is used to estimate the relative affinity (potency ratio) of a test compound for estrogen receptors present in the cytosol of recombinant Chinese hamster ovary (CHO) cells, stably transfected with the human estrogen receptor, as compared with estradiol (E2). Cytosol prepared from recombinant CHO cells, stably transfected with the human estrogen receptor. The cell line has been made within the Department of Biotechnology and Biochemistry (BBC) (N.V. Organon) and is known under the name CHO-ER (2B1). Reference compounds are ethinylestradiol and estriol. The data are expressed in percentage of the action of the reference compound in the assay

[4] = target: T1, human estrogen receptor α (hERα); assay: competitive binding to cytoplasmic human estrogen receptor from recombinant CHO cells (α-binding); conditions: relative affinity (potency ratio), in percentage of the action of the reference compound in the assay; cytosol of recombinant CHO cells
Protocol: as §5

| Structure (SMILES) | α-transactivation [1] [percentage] | β-transactivation [2] [percentage] | β-binding [3] [percentage] | α-binding. [4] |
| --- | --- | --- | --- | --- |
| C#C[C@]1(O)CCC2C3CCC4=C(CC[C@@H](O)C4)C3[C@@H](CC=C)C[C@@]21C (stereo partly drawn) [Compound 11, (3α,11β,17β)-11-(2-propenyl)-19-norpregn-5(10)-en-20-yne-3,17-diol] | 58 | 0.8 | 1.1 | 57 percentage |
| C#C[C@]1(O)CCC2C3CC[C@H]4C[C@@H](O)CCC4C3[C@@H](C(F)F)C[C@@]21C (stereo partly drawn) [Compound 21, (3β,5α,11β,17β)-11-difluoromethyl-19-norpregn-20-yne-3,17-diol] | 7.7 | 0.1 | 0.2 | 8.6 percentage |
| C#C[C@]1(O)CCC2C3CC[C@H]4C[C@@H](O)CCC4C3[C@@H](CCF)C[C@@]21C (stereo partly drawn) [Compound 31, (3β,5α,11β,17β)-11-(2-fluoroethyl)-19-norpregn-20-yne-3,17-diol] | 9.6 | 0.2 | 0.1 | 37 percentage |
| C#C[C@]1(O)CCC2C3CC[C@H]4C[C@H](O)CCC4C3[C@@H](CCF)C[C@@]21C (stereo partly drawn) [Compound 32, (3α,5α,11β,17β)-11-(2-fluoroethyl)-19-norpregn-20-yne-3,17-diol] | 2.4 | 0.1 | <0.1 | 2,6 percentage |
| C#C[C@]1(O)CCC2C3CCC4=C(CC[C@@H](O)C4)C3[C@@H](CCC=C)C[C@@]21C (stereo partly drawn) [Compound 42, (3α,11β,17β)-11-(3-butenyl)-I9-norpregn-5(10)-en-20-yne-3,17-diol] | 2 | <0.04 | 0.1 | 29 percentage |
| C#C[C@]1(O)CCC2C3CCC4=C(CC[C@H](O)C4)C3[C@@H](CCC=C)C[C@@]21C (stereo partly drawn) [Compound 43, (3β,11β,17β)-11-(3-butenyl)-19-norpregn-5(10)-en-20-yne-3,17-diol] | 1.3 | <0.1 | 0.1 | 11.9 percentage |
| C#C[C@]1(O)CCC2C3C(C4=C(C[C@@H](O)CC4)C[C@H]3C)[C@@H](CCF)C[C@@]21C (stereo partly drawn) [Compound 54, (3β,7α,11β,17β)-11-(2-fluoroethyl)-7-methyl-19-norpregn-5(10)-en-20-yne-3,17-diol] | 29.7 | 1.0 | 0.1 | 27,5 percentage |
| C#C[C@]1(O)CCC2C3C(C4=C(C[C@H](O)CC4)C[C@H]3C)[C@@H](CCF)C[C@@]21C (stereo partly drawn) [Compound 55, (3α,7α,11β,17β)-11-(2-fluoroethyl)-7-methyl-19-norpregn-5(10)-en-20-yne-3,17-diol] | 61.5 | 1.9 | 0.1 | 36 percentage |
| C#C[C@]1(O)[C@H](C)CC2C3C(C(=C)C[C@@]21C)C1CC[C@H](O)C[C@@H]1C[C@H]3C (stereo partly shown) [Compound 81] | 27 | 0.1 |  |  |
